Results from US7718641B2, “Pyrrolo [3,4-H] isoquinoline compounds and methods for modulating gated ion channels” (Aros Pharma ApS, priority 2005, dated 2010).

Assays:
homomeric hASIC1a = biological target: T1, homomeric hASIC1a (Homo sapiens, UniProt P78348); assay: Two-electrode voltage clamp in Xenopus laevis oocytes expressing homomeric hASIC1a; format: cell-based; settings: 30 μM, OpusExpress
T1 construct: expressed in transfected cells; host or cells: Xenopus laevis oocytes (nuclear cDNA microinjection)
T1 sequence (P78348 1-528): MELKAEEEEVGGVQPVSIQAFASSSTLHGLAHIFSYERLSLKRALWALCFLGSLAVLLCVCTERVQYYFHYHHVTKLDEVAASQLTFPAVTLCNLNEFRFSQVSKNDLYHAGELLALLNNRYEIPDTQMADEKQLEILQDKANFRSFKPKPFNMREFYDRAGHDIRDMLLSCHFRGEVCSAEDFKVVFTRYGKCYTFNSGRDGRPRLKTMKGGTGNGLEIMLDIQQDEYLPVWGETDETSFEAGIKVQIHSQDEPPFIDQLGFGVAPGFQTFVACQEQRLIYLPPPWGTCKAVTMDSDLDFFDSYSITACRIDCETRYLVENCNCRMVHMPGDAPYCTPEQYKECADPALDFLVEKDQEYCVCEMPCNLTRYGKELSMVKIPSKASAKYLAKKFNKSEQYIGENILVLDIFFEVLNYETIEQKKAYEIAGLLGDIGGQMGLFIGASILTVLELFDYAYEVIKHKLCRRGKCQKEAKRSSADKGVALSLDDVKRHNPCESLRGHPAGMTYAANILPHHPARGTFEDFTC
Experimental: Two-electrode voltage clamp electrophysiological assays in Xenopus laevis oocytes expressing gated ion channels are performed as follows:
Oocytes are surgically removed from adult Xenopus laevis and treated for 2 h at room temperature with 1 mg/ml type I collagenase (Sigma) in Barth's solution under mild agitation. Selected oocytes at stage IV-V are defolliculated manually before nuclear microinjection of 2.5-5 ng of a suitable expression vector, such as pcDNA3, comprising the nucleotide sequence encoding a gated ion channel subunit protein. In such an experiment, the oocytes express homomultimeric proton-gated ion channels on their surface. In an alternate experiment, one, two, three or more vectors comprising the coding sequences for distinct gated ion channel subunits are co-injected in the oocyte nuclei. […] After 2-4 days of expression at 19° C. in Barth's solution containing […] gentamicin and 1.8 mM CaCl2, gated ion channels are activated by applying an acidic solution (pH <7) and currents are recorded in a two electrode voltage-clamp configuration, using an OC-725B amplifier (Warner Instruments). Currents are acquired and digitized at 500 Hz on an Apple Imac G3 computer with an A/D NB-MIO-16XL interface (National Instruments) and recorded traces are post-filtered at 100 Hz in Axograph (Axon Instruments) (Neher, E. and Sakmann, B. (1976) Nature 260:799-802). […]

hASIC1a = biological target: T2, hASIC1a (Homo sapiens, UniProt P78348); assay: Whole-cell patch clamp of HEK293 cells expressing homomeric hASIC1a; format: cell-based; set-up: expressed in transfected cells; host or cells: HEK293; settings: 10 μM, HEK293, -60 mV, pH 7.4 to pH 6.5 for 5 sec, n=3
T2 sequence (P78348 1-528): T1 sequence (P78348 1-528)
Experimental: HEK293 cells were transfected either with hASIC1a alone or co-transfected with hASIC1a and hASIC3. Acid-induced inward currents were recorded in the presence and absence of compound A (10 μM) using the whole-cell configuration of the patch-clamp method (voltage clamp mode).
All experiments are performed at room temperature (20-25° C.) in voltage clamp using conventional whole cell patch clamp methods (Neher, E., et al. (1978) Pfluegers Arch 375:219-228).
Coverslips with the cells are transferred to a 15 μl experimental chamber mounted on the stage of an inverted microscope (IMT-2, Olympus) supplied with Nomarski optics. […] The cells are held at a holding voltage of −60 mV and at the start of each experiment the current is continuously measured for 45 s to ensure a stable baseline. […] Current amplitudes are measured at the peak of the responses, and effect of the compounds is calculated as the amplitude at compound equilibrium divided by the amplitude of the current evoked by the pulse just before the compound was included. […]
FIGS. 4A and 4B show response to acidic saline in the absence or presence of 10 μM of Compound A recorded from HEK293 cells expressing either hASIC1a alone or HEK293 cells co-expressing hASIC1a and hASIC3 [voltage clamped at −60 mV, extracellular solution surrounding cells was changed rapidly from pH 7.4 to pH 6.5 for 5 sec] […]

effect on inward currents elicited by pH 6.5, homomeric hASIC1a (homomeric hASIC1a): effectively modulates the activity
effect on acid-induced inward current, hASIC1a alone (hASIC1a): effectively modulates the activity
SMILES: COc1ccc(F)cc1-c1cc2c(c3c1CCN(C)C3)NC(=O)/C2=N/O [Compound A, 5-(5-fluoro-2-methoxyphenyl)-6,7,8,9-tetrahydro-3-(hydroxyimino)-8-methyl-1H-pyrrolo[3,2-h]isoquinoline-2(3H)-one]
